According to ChEMBL document CHEMBL5725519, “Substituted benzamides and methods of use thereof” (2017):
pIC50: −log10 of the molar value.

Tests used:
[1] = (§1) Control sodium currents were measured in 0.5% DMSO.; format: cell-based
[2] = molecular target: Sodium channel protein type 9 subunit alpha (Homo sapiens, UniProt Q15858); experiment: as §1; format: cell-based
Sodium channel protein type 9 subunit alpha, sequence (Q15858 whole entry): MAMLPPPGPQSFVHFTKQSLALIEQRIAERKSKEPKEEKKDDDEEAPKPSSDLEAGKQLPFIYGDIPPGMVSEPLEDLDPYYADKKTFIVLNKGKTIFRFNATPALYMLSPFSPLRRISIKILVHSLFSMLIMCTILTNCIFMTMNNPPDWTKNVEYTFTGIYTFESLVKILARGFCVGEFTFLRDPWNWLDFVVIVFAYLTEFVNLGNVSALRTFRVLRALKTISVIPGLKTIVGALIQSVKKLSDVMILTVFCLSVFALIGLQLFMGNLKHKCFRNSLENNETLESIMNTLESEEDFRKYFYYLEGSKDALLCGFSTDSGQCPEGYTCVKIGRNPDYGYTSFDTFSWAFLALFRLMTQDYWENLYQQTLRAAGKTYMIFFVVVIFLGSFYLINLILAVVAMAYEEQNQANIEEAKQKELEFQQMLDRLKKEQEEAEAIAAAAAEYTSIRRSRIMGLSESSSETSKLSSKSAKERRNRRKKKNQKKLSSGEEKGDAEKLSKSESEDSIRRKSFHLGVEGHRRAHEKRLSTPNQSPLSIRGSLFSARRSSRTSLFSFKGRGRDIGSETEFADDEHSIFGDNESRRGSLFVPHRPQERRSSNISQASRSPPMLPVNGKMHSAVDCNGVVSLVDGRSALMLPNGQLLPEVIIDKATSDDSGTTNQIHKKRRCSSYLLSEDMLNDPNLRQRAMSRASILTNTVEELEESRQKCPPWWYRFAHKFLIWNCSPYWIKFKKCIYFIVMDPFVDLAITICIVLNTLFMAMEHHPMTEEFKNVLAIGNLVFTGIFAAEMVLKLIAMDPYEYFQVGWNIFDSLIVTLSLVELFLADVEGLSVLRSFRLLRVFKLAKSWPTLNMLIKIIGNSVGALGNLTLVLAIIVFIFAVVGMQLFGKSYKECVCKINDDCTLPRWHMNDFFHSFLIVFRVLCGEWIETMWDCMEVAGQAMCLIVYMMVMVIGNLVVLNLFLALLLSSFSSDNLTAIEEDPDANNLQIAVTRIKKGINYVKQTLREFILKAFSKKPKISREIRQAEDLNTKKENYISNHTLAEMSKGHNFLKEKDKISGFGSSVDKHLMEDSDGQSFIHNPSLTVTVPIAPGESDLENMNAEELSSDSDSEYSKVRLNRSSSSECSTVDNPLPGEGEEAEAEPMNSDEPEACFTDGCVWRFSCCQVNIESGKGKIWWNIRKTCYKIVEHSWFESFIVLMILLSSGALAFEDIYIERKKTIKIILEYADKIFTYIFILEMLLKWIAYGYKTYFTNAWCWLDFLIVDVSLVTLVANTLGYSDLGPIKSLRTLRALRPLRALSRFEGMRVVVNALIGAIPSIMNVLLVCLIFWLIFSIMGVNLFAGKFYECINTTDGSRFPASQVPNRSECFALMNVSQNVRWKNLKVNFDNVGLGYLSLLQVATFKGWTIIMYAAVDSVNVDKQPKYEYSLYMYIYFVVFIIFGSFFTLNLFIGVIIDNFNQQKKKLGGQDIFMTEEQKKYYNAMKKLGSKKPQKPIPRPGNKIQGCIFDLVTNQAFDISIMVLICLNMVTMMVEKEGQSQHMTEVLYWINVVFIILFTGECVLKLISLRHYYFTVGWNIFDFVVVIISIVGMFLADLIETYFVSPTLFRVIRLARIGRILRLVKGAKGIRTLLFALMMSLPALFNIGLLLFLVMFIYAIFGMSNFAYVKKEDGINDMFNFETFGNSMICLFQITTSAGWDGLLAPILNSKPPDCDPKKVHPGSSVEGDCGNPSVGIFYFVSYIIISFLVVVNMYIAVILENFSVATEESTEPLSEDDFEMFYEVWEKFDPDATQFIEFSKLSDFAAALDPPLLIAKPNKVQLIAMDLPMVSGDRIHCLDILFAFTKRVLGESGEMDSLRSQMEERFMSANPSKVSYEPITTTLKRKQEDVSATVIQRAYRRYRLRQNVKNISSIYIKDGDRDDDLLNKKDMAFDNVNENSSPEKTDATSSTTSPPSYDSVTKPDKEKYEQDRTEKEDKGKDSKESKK

pIC50 [1] | SMILES | pIC50 [2]
6.77 | CS(=O)(=O)NC(=O)c1cc(C2CC2)c(OCC2CCN(Cc3ccc(Cl)c(C(F)(F)F)c3)CC2)cc1F | 
 | O=C(NS(=O)(=O)N1CCC1)c1cc(C2CC2)c(OCC2CC3CCC(C2)N3C(c2ccccc2)c2ccccc2)cc1F (configuration not stated) | 8.27
